The record followed here is PubChem BioAssay AID248 (DTP/NCI, 2004).

Molecules are shown by their SMILES. Several values for one entry are separate records, joined by “and”; a condition that tells them apart may be missing. Equal values may be shown once. Toxic doses and inconclusive results are not listed.

The test system of this assay is L1210 leukemia ip in BDF1 mice, survival T/C. Nature of the assay: NCI In Vivo Anticancer Drug Screen. Data for tumor model L1210 Leukemia (intraperitoneal) in B6D2F1 (BDF1) mice. Particulars: higher = longer survival. The gist of the method:
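Tumor cells were implanted, animals were treated, and survival was followed. The result divides the treated measurement by the vehicle-control measurement.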

Setting [1] is: endpoint: mean survival time, dose: 50.0 mg/kg/injection, schedule: Q01DX001 (ip), vehicle: saline.
Setting [2] is: endpoint: mean survival time, dose: 100.0 mg/kg/injection, schedule: Q01DX001 (ip), vehicle: carboxymethylcellulose (CMC).
Setting [3] is: endpoint: mean survival time, dose: 100.0 mg/kg/injection, schedule: Q01DX001 (ip), vehicle: saline.
Setting [4] is: endpoint: mean survival time, dose: 200.0 mg/kg/injection, schedule: Q01DX001 (ip), vehicle: carboxymethylcellulose (CMC).
[5] abbreviates: endpoint: mean survival time, dose: 200.0 mg/kg/injection, schedule: Q01DX001 (ip), vehicle: saline.
The mark [6] stands for this setting: endpoint: mean survival time, dose: 400.0 mg/kg/injection, schedule: Q01DX001 (ip), vehicle: carboxymethylcellulose (CMC).
[7] abbreviates: endpoint: mean survival time, dose: 100.0 mg/kg/injection, schedule: Q01DX009 (ip), vehicle: Klucel (hydroxypropylcellulose) (HPC).
Setting [8] is: endpoint: mean survival time, dose: 200.0 mg/kg/injection, schedule: Q01DX009 (ip), vehicle: Klucel (hydroxypropylcellulose) (HPC).
[9] abbreviates: endpoint: mean survival time, dose: 100.0 mg/kg/injection, schedule: Q04DX003 (ip), vehicle: saline.
[10] abbreviates: endpoint: mean survival time, dose: 200.0 mg/kg/injection, schedule: Q04DX003 (ip), vehicle: saline.
[11] abbreviates: endpoint: mean survival time, dose: 400.0 mg/kg/injection, schedule: Q04DX003 (ip), vehicle: saline.
Setting [12] is: endpoint: mean survival time, dose: 100.0 mg/kg/injection, schedule: Q04DX002 (ip), vehicle: saline with Tween-80.
The mark [13] stands for this setting: endpoint: mean survival time, dose: 200.0 mg/kg/injection, schedule: Q04DX002 (ip), vehicle: saline with Tween-80.
Where [14] appears, read: endpoint: mean survival time, dose: 400.0 mg/kg/injection, schedule: Q04DX002 (ip), vehicle: saline with Tween-80.
Where [15] appears, read: endpoint: mean survival time, dose: 400.0 mg/kg/injection, schedule: Q01DX001 (ip), vehicle: saline.

With `CN(C)c1ccc(/C=C/c2ccnc3ccccc23)cc1`, the T/C (endpoint: mean survival time, dose: 4.0 mg/kg/injection, schedule: Q01DX Z (ip), vehicle: saline) is 103 % of control; the T/C (endpoint: mean survival time, dose: 5.0 mg/kg/injection, schedule: Q01DX010 (ip), vehicle: saline) is 94 % of control and 100 % of control; the T/C (endpoint: mean survival time, dose: 6.0 mg/kg/injection, schedule: Q01DX Z (ip), vehicle: saline) was 103 % of control; the T/C (endpoint: mean survival time, dose: 8.0 mg/kg/injection, schedule: Q01DX Z (ip), vehicle: saline) was 103 % of control; the T/C (endpoint: mean survival time, dose: 10.0 mg/kg/injection, schedule: Q01DX009 (ip), vehicle: saline) is 93 % of control and 101 % of control; the T/C (endpoint: mean survival time, dose: 10.0 mg/kg/injection, schedule: Q01DX010 (ip), vehicle: saline) was 98 % of control. Besides, the T/C runs as follows: (endpoint: mean survival time, dose: 10.0 mg/kg/injection, schedule: Q01DX Z (ip), vehicle: saline) 97 % of control; (endpoint: mean survival time, dose: 20.0 mg/kg/injection, schedule: Q01DX009 (ip), vehicle: saline) 95 % of control and 97 % of control; (endpoint: mean survival time, dose: 20.0 mg/kg/injection, schedule: Q01DX010 (ip), vehicle: saline) 100 % of control and 91 % of control; (endpoint: mean survival time, dose: 40.0 mg/kg/injection, schedule: Q01DX009 (ip), vehicle: saline) 95 % of control and 88 % of control; (endpoint: mean survival time, dose: 40.0 mg/kg/injection, schedule: Q01DX010 (ip), vehicle: saline) 93 % of control and 100 % of control; under setting [1], 101 % of control. The T/C (endpoint: mean survival time, dose: 64.0 mg/kg/injection, schedule: Q01DX010 (iv), vehicle: saline) was 108 % of control; the T/C (endpoint: mean survival time, dose: 80.0 mg/kg/injection, schedule: Q01DX009 (ip), vehicle: saline) was 101 % of control; the T/C under setting [2] was 103 % of control; the T/C under setting [3] was 97 % of control; the T/C (endpoint: mean survival time, dose: 128.0 mg/kg/injection, schedule: Q01DX010 (iv), vehicle: saline) was 87 % of control; the T/C under setting [4] is 109 % of control. The T/C was 103 % of control under setting [5]; 92 % of control (endpoint: mean survival time, dose: 256.0 mg/kg/injection, schedule: Q01DX010 (iv), vehicle: saline); 106 % of control under setting [6]; 97 % of control (endpoint: mean survival time, dose: 800.0 mg/kg/injection, schedule: Q01DX001 (ip), vehicle: carboxymethylcellulose (CMC)); 100 % of control and 87 % of control (endpoint: median survival time, dose: 10.0 mg/kg/injection, schedule: Q01DX009 (ip), vehicle: saline); 100 % of control and 87 % of control (endpoint: median survival time, dose: 20.0 mg/kg/injection, schedule: Q01DX009 (ip), vehicle: saline). Moreover, the T/C runs as follows: (endpoint: median survival time, dose: 40.0 mg/kg/injection, schedule: Q01DX009 (ip), vehicle: saline) 93 % of control and 105 % of control; (endpoint: median survival time, dose: 80.0 mg/kg/injection, schedule: Q01DX009 (ip), vehicle: saline) 100 % of control and 87 % of control.

Turning to `Cc1cc(N(C)C)ccc1C=O`, the T/C under setting [7] is 94 % of control; the T/C (endpoint: mean survival time, dose: 100.0 mg/kg/injection, schedule: Q04DX003 (ip), vehicle: Klucel (hydroxypropylcellulose) (HPC)) was 97 % of control; the T/C under setting [8] was 105 % of control; the T/C (endpoint: mean survival time, dose: 200.0 mg/kg/injection, schedule: Q04DX003 (ip), vehicle: Klucel (hydroxypropylcellulose) (HPC)) is 105 % of control; the T/C (endpoint: mean survival time, dose: 400.0 mg/kg/injection, schedule: Q01DX009 (ip), vehicle: Klucel (hydroxypropylcellulose) (HPC)) is 103 % of control; the T/C (endpoint: mean survival time, dose: 400.0 mg/kg/injection, schedule: Q04DX003 (ip), vehicle: Klucel (hydroxypropylcellulose) (HPC)) was 98 % of control.

For `CC(C)c1c[nH]c(=O)[nH]c1=O`, the T/C runs as follows: (endpoint: mean survival time, dose: 100.0 mg/kg/injection, schedule: Q01DX009 (ip), vehicle: other) 102 % of control; under setting [9], 91 % of control; (endpoint: mean survival time, dose: 200.0 mg/kg/injection, schedule: Q01DX009 (ip), vehicle: other) 96 % of control; under setting [10], 93 % of control; (endpoint: mean survival time, dose: 400.0 mg/kg/injection, schedule: Q01DX009 (ip), vehicle: other) 102 % of control; under setting [11], 91 % of control.

`CCCCP(=O)(CC(=O)O)c1ccccc1` (stereo not drawn): the T/C was 97 % of control under setting [12], 100 % of control under setting [13] and 90 % of control under setting [14].

On to `O=C(O)/C(=C\c1ccccc1[N+](=O)[O-])c1cccc(Cl)c1`, for which the T/C was 90 % of control under setting [7] and 95 % of control under setting [8].

On to `CCCC(=O)N1C(C)CCC1C` (stereo not drawn), for which the T/C was 103 % of control under setting [12] and 95 % of control under setting [13].

In the case of `O=C1CCCc2[nH]c(=O)ccc21`, the T/C is 101 % of control under setting [3], 94 % of control under setting [5] and 96 % of control under setting [15].

Regarding `N=Cc1c(O)n(-c2ccccc2)c(=O)n(-c2ccccc2)c1=O`, the T/C is 102 % of control (endpoint: mean survival time, dose: 100.0 mg/kg/injection, schedule: Q01DX009 (ip), vehicle: saline with Tween-80); 104 % of control (endpoint: mean survival time, dose: 200.0 mg/kg/injection, schedule: Q01DX009 (ip), vehicle: saline with Tween-80); 93 % of control (endpoint: mean survival time, dose: 400.0 mg/kg/injection, schedule: Q01DX009 (ip), vehicle: saline with Tween-80).

For `C[N+](C)(Cc1ccccc1)Cc1ccccc1`, the T/C by setting is: (endpoint: mean survival time, dose: 5.0 mg/kg/injection, schedule: Q01DX001 (ip), vehicle: saline) 96 % of control; (endpoint: mean survival time, dose: 10.0 mg/kg/injection, schedule: Q01DX001 (ip), vehicle: saline) 98 % of control; (endpoint: mean survival time, dose: 20.0 mg/kg/injection, schedule: Q01DX001 (ip), vehicle: saline) 102 % of control; (endpoint: mean survival time, dose: 40.0 mg/kg/injection, schedule: Q01DX001 (ip), vehicle: saline) 102 % of control; (endpoint: mean survival time, dose: 75.0 mg/kg/injection, schedule: Q01DX001 (ip), vehicle: saline) 105 % of control; (endpoint: mean survival time, dose: 80.0 mg/kg/injection, schedule: Q01DX001 (ip), vehicle: saline) 104 % of control.

Turning to `O=NN(CCF)C(=O)Nc1ccccc1`, the T/C (endpoint: mean survival time, dose: 18.0 mg/kg/injection, schedule: Q01DX001 (ip), vehicle: other) was 160 % of control.

As for `O=C(CCl)Oc1c(Cl)c(Cl)c(Cl)c(Cl)c1Cl`, the T/C reads like this: (endpoint: mean survival time, dose: 6.25 mg/kg/injection, schedule: Q04DX003 (ip), vehicle: alcohol) 100 % of control; (endpoint: mean survival time, dose: 12.5 mg/kg/injection, schedule: Q04DX003 (ip), vehicle: alcohol) 98 % of control; (endpoint: mean survival time, dose: 25.0 mg/kg/injection, schedule: Q04DX003 (ip), vehicle: alcohol) 98 % of control; (endpoint: mean survival time, dose: 100.0 mg/kg/injection, schedule: Q04DX003 (ip), vehicle: alcohol) 111 % of control.

Regarding `CC(=O)N(c1ccncc1)c1ccc(NC(=O)c2ccc(N3C(=O)c4ccccc4C3=O)cc2[N+](=O)[O-])cc1`, the T/C is 93 % of control and 102 % of control (endpoint: mean survival time, dose: 25.0 mg/kg/injection, schedule: Q04DX002 (ip), vehicle: saline with Tween-80); 96 % of control and 88 % of control under setting [14].

In the case of `Cc1ccccc1NC(=O)NO`, the T/C was 103 % of control under setting [2], 100 % of control under setting [4] and 105 % of control under setting [6].

With `Nc1nc2c(=O)[nH]c(=O)[nH]c2n1C1OC(CO)C(O)C1O` (stereo not drawn), the T/C reads like this: under setting [3], 102 % of control; under setting [5], 111 % of control.

Take `CC1(C)SC2C(NC(=O)C(C(=O)O)c3ccccc3)C(=O)N2C1C(=O)O` (stereo not drawn): the T/C is, setting by setting: (endpoint: mean survival time, dose: 25.0 mg/kg/injection, schedule: Q01DX009 (ip), vehicle: saline) 103 % of control; under setting [1], 107 % of control; (endpoint: mean survival time, dose: 50.0 mg/kg/injection, schedule: Q01DX009 (ip), vehicle: saline) 103 % of control; under setting [3], 95 % of control; (endpoint: mean survival time, dose: 100.0 mg/kg/injection, schedule: Q01DX009 (ip), vehicle: saline) 100 % of control and 101 % of control; under setting [5], 102 % of control. The T/C reads like this: (endpoint: mean survival time, dose: 200.0 mg/kg/injection, schedule: Q01DX009 (ip), vehicle: saline) 105 % of control; under setting [15], 101 % of control; (endpoint: mean survival time, dose: 400.0 mg/kg/injection, schedule: Q01DX009 (ip), vehicle: saline) 100 % of control.

With `CCC(C)C(=NC)Nc1ccc(Cl)c(Cl)c1` (stereo not drawn), the T/C (endpoint: mean survival time, dose: 111.0 mg/kg/injection, schedule: Q01DX Z (ip), vehicle: methylcellulose (MC)) is 91 % of control.

As for `CCC1(CC)NC(=O)N(CCOS(C)(=O)=O)C1=O`, the T/C is, setting by setting: (endpoint: mean survival time, dose: 50.0 mg/kg/injection, schedule: Q04DX003 (ip), vehicle: saline) 95 % of control; under setting [9], 115 % of control; under setting [10], 101 % of control; under setting [11], 100 % of control.
